Experiment: Human HepG2 cell viability assay in 384 well format
Format: toxicity, cell-based
Parameters: dose 125 nL, time 70.5 hour; concentration not given beside the values
Conditions: HepG2 cells, read-out: Inhibition

| SMILES | cytotoxicity at 70.5 h [%] |
| --- | --- |
| COCC(=O)N1C[C@H]2CN(Cc3cccc(F)c3)C(=O)[C@H]2C1 | 8.07 |
| O=C(NC1CC1)N1C[C@H]2CN(Cc3cccc(F)c3)C(=O)[C@H]2C1 | -13.8 |
| Cc1ccc(C(=O)N2C[C@H]3CCC[C@@]3(COCC3CCOCC3)C2)o1 | -5.19 |
| CN1C(=O)CC(c2cnn(C)c2)C12CCN(C(=O)c1ccco1)CC2 (configuration not stated) | -6.73 |
| Cc1ccc(CN2CCN(C)c3ncccc3C2)o1 | -6.49 |
| CN1C(=O)CC(c2cnn(C)c2)C12CCN(C(=O)c1cccn1C)CC2 (configuration not stated) | -13.1 |
| CS(=O)(=O)N[C@H]1CN(C(=O)c2cscn2)[C@@H]2CCCO[C@H]12 | -8.41 |
| O=C(c1ccoc1)N1CC[C@@H]2O[C@@H](COCC3CCOCC3)CC[C@@H]21 | 16 |
| CC(C)Nc1ncnc2c1CCN(C(=O)CC1CCCC1)CC2 | 9.38 |
| Cc1ccsc1C(=O)N1CCc2ncnc(NC(C)C)c2CC1 | -7.7 |
| O=C(c1ccncn1)N1C[C@H]2CCC[C@@]2(COCC2CCOCC2)C1 | -14.6 |
| Cc1nc(COC[C@H]2CCC[C@]23CN(C2CCOC2)CCO3)cs1 (some centres not stated) | 22.4 |
| O=C(NCC1CC1)C1CN(C(=O)Nc2ccccc2)CC12CCOCC2 (configuration not stated) | -5.6 |
| CC(C)NC(=O)c1cc2c(c3ccccc3n2C)n1C(=O)N(C)C | -9.14 |
| CC(C)NC(=O)C1CN(C(=O)c2ccccc2)CC12CCOCC2 (configuration not stated) | -5.57 |
| O=C(c1cccnc1)N1CCC2(CC1)CN(c1ccccn1)CCO2 | -13.7 |
| COc1cc(N2C[C@H]3CCC[C@@H](CN4CCCC4)[C@H]3C2)ncn1 | -8.91 |
| O=C1CC2(CCN(Cc3ccsc3)C2)CN1c1ccc2c(c1)OCO2 (configuration not stated) | 10.9 |
| O=C(NCCN1CCCCC1=O)C1CCC(=O)N(C2CCCC2)C1 (configuration not stated) | -3.21 |
| CCn1c(C2CCN(C(=O)c3cc(CC(C)C)no3)CC2)nn(C)c1=O | 3.74 |
| O=C(CN1C(=O)CCNC1=O)N1CCOC(c2ccc(Cl)c(Cl)c2)C1 (configuration not stated) | -10.7 |
| CCn1c(N)nc2cc(C(=O)N3CCN(CC(F)(F)F)CC3)cnc21 | -13 |

| SMILES | cytotoxicity at 70.5 h [%] |
| --- | --- |
| COc1cccc(-n2c(SCC(=O)O)nnc2-c2cn[nH]c2)c1 | -3.32 |
| CCc1nnc(CN(CC)C(=O)C(C)n2ccnc2C(C)C)o1 (configuration not stated) | -5.37 |
| COCCn1cnnc1CN(C)c1nc(N)nc2c1CCCC2 | 3.03 |
| CC1=C(C(=O)N2CCOC(Cc3cccc(C(F)(F)F)c3)C2)OCCO1 (configuration not stated) | -6.57 |
| Cc1ncsc1CCN(C)Cc1cc2n(n1)CCN(Cc1ncc[nH]1)C2 | 47.1 |
| COC(=O)CNC(=O)N1CCC2(CC1)CC(c1ccccc1)CN(C)C2 (configuration not stated) | 15.9 |
| CC(C)Oc1ccc(CN2CCN3CCN(C)CC3C2)cc1CO (configuration not stated) | -5.57 |
| O=C1CC2(CCN(CCCO)CC2)CN1Cc1ccc(F)c(F)c1 | -5 |
| COc1cccc(OC2CN(C(=O)c3cc(CC(C)C)nn3C)C2)c1 | -1.49 |
| CCn1c(C2CCCN(C(=O)C(C)(C)OC)C2)nn(CCN(C)C)c1=O (configuration not stated) | -1.55 |
| CC(C)n1cccc1C(=O)N1CC[C@@H](NC(=O)c2ccccn2)[C@H](O)C1 | -14.5 |
| Cn1c(CN2CCC(OCc3cccnc3)CC2)cc2ccccc21 | 1.71 |
| CC(O)c1cn(CC2CCN(C(=O)CN3CCCC3=O)CC2)nn1 (configuration not stated) | -10.1 |
| CCC(=O)N1CCN(C(=O)Nc2ccc(Cl)cc2)[C@H]2CS(=O)(=O)C[C@H]21 | -14.3 |
| COc1ccccc1N1CCN(C(=O)CCc2nncn2C)C(C)C1 (configuration not stated) | 17.3 |
| Cc1n[nH]c(C)c1CCN(C)C(=O)c1ccc(CN2CCCCC2)cc1 | 34.3 |
| Cn1ccnc1CN1CCC(c2ccnc(-c3cccc(O)c3)c2)C1 (configuration not stated) | -1.18 |
| COCCn1ccnc1C1CCN(c2cccc(C(=O)O)n2)CC1 | -3.81 |
| CC1CCN(S(=O)(=O)N2C[C@H](c3ccccc3)[C@@H](N)C2)CC1 | 27.7 |
| COCCCN1CC2(CCCN(c3ncnc4[nH]cnc34)C2)CCC1=O (configuration not stated) | -6.06 |
| COc1ccccc1CCC(=O)N1C[C@H](c2ccccc2)[C@@H](N)C1 | -8.71 |
| COc1cccc(-c2nc3c([nH]2)CCNC3)c1F | -12.1 |

| SMILES | cytotoxicity at 70.5 h [%] |
| --- | --- |
| Cc1cc(-c2cc(S(=O)(=O)N3C[C@H](C4CC4)[C@@H](N)C3)c(C)s2)[nH]n1 | -9.13 |
| CC(C)CC(NC(=O)c1cc(C2CC2)n[nH]1)c1ncnn1C (configuration not stated) | 20.9 |
| COc1ccccc1CN1C(=O)O[C@@H]2CN(CC3CC3)C[C@@H]21 | -0.52 |
| CCOc1ccc(C(=O)N2C[C@H]3CC[C@@H]2CN(C(=O)C2CCC2)C3)cc1 | -0.418 |
| O=C(CSCC1CC1)N1CCCN(c2ccc(F)cc2)CC1 | -7.69 |
| CC1(Cc2ccc3c(c2)OCO3)CCCN(S(=O)(=O)N2CCCC2)C1 (configuration not stated) | 0.304 |
| CCCn1ccnc1CN1CCC(Oc2ccc(Cl)cc2)(C(=O)O)CC1 | -10.4 |
| Cc1cc(N(C)CCN(C)C2CCCC2)n2nc(C)cc2n1 | -1.99 |
| COc1ccc(OCc2cc(C(=O)N3CCC(O)CC3)n[nH]2)c(Cl)c1 | -5.72 |
| Cc1nn(C)cc1-c1ccnc(N2CCSCC2)n1 | -1.53 |
| Cn1ncnc1-c1ccnc(NCc2ccncc2)n1 | -13.8 |
| Cc1cccc(C(Nc2nccc(-c3ccc(C)nc3C)n2)C2CC2)n1 (configuration not stated) | -3.12 |
| Cc1c[nH]c(CN2CCCCC2CCn2ccnc2C)c(C)c1=O (configuration not stated) | -8.38 |
| O=C1N(Cc2ccc(F)c(F)c2)CCCC1(O)CNCc1cccnc1 (configuration not stated) | -4.19 |
| CCC(C)N(Cc1ccc(C)cc1)Cc1c[nH]c(C)n1 (configuration not stated) | -5.02 |
| COc1ccc(CN2CCn3cncc3C2)cc1Cn1cncn1 | -5.89 |
| CCOc1ccc(C(=O)N2CCC(Oc3ccccc3)(C(=O)O)CC2)o1 | -3.49 |
| c1ccc(Cc2noc(-c3ccc(NCC4CCCCO4)nc3)n2)cc1 (configuration not stated) | 26.1 |
| Cc1ncc(S(C)(=O)=O)c(N2Cc3ccccc3C2)n1 | 2.76 |
| O=C(O)c1cc(-n2cc3c(n2)CCC3)cc(S(=O)(=O)NC2CCCC2)c1 | 26.3 |
| COc1ccc(C(=O)C2CCCN(c3nccc(N)n3)C2)c(C)c1 (configuration not stated) | -4.73 |
| Cc1nc(N2CCC3(CCCNC3=O)C2)nc2c1CCCC2 (configuration not stated) | -3.11 |

| SMILES | cytotoxicity at 70.5 h [%] |
| --- | --- |
| Cc1cc(C)c(C(=O)NC2CCN(c3ncccc3C#N)CC2)c(=O)[nH]1 | -11.1 |
| CCn1ccnc1C1CCN(Cc2cccc(C)n2)CC1 | 2.62 |
| CC(C)=CCN1CCN(C(=O)c2snnc2C)[C@H]2CS(=O)(=O)C[C@H]21 | -9.09 |
| Cc1cccc(=O)n1CCCNc1nc(N(C)C)nc2c1CCNC2 | 18.8 |
| COc1ccc2[nH]nc(CN3CCN(Cc4cccc(F)c4)CC3)c2c1 | 4.06 |
| Cc1nc[nH]c1CN1CCCC12CCN(c1nc3ccccc3s1)CC2 | -1.37 |
| Cc1nc(CCN)cc(N2CCC(O)(c3ccc(Cl)cc3)CC2)n1 | 19.3 |
| Nc1nnc(CCNc2ncnc3c2CCN(C(=O)C2CC2)C3)s1 | -4.19 |
| O=C(NCCCn1cnnc1)C1CCCN(C2CCCC2)C1 (configuration not stated) | 26.7 |
| COc1ccc(CCN)cc1-c1ccc(S(C)(=O)=O)cc1 | -8.83 |
| CN(C)c1cnn(CC(=O)N2CCN(c3ccccc3)CC2)c(=O)c1 | -5.83 |
| CCc1cc(C(=O)N2CCCn3nc(CCC(=O)O)cc3C2)cs1 | -8.44 |
| O=S(=O)(NCCn1cc(C2CCOC2)nn1)c1ccc(Cl)cc1 (configuration not stated) | 17.5 |
| CC(C)CC(=O)N1CCC2(CC1)COCCN2Cc1ccc(F)cc1 | -11.1 |
| Cn1cc(CN2CCC3(CCN(c4cnn(C)c4)C3=O)C2)cn1 (configuration not stated) | -10.8 |
| COc1ccc(CN2CCC3(CC2)CCN(c2cnn(C)c2)C3=O)cc1 | -6.09 |
| CCN1CCOCC12CCN(C(=O)Cc1ccccc1)CC2 | -11.2 |
| O=C(C1CC1)N1CCC2(CC1)COCCN2Cc1ccc(F)cc1 | 0.119 |
| CC(C)C(=O)N1CCC2(CC1)COCCN2Cc1ccc(F)cc1 | -2.33 |
| CN(C)CCOC[C@H]1CC[C@H]2[C@H](CCN2C(=O)c2ccoc2)O1 | -12.4 |
| O=C1[C@H]2CN(Cc3nccs3)C[C@H]2CN1c1cncnc1 | -8.02 |
| COc1cc(N2CC[C@@H](O)[C@@H]2Cc2ccncc2)ncn1 | -10 |

| SMILES | cytotoxicity at 70.5 h [%] |
| --- | --- |
| Fc1cnc(N2CC3(CCN(Cc4ccsc4)C3)C2)nc1 | -6.5 |
| CS(=O)(=O)N[C@@H]1CN(C(=O)c2cccnc2)[C@@H]2CCCO[C@@H]21 | -5.12 |
| COCC1CN(CC2CC2)Cc2nccn2C1 (configuration not stated) | -6.11 |
| O=C1[C@H]2CN(Cc3ccco3)C[C@H]2CN1c1ccsc1 | -11.1 |
| Cc1noc(C)c1CN1CC[C@H]2OCC[C@@]2(C(=O)N(C)C)C1 | -10.5 |
| CN1CCO[C@H]2CN(C(=O)c3ccoc3)C[C@H]21 | -7.03 |
| COCC(=O)N1CCC2(CC1)CN(c1ccccn1)CCO2 | -7.15 |
| COCCN1CCOCC12CCN(C(=O)c1ccncc1)CC2 | -9.1 |
| COCCN1CCOCC12CCN(C(=O)c1cccnc1)CC2 | -8.13 |
| Cn1cc(N2CC3(CCN(Cc4ccsc4)CC3)OCC2=O)cn1 | 13.1 |
| Cc1ccc(N2CCO[C@H]3CN(Cc4nccs4)C[C@H]32)nn1 | -6.14 |
| COc1ccccc1CN1C[C@@H]2COC[C@]2(COCc2ccncc2)C1 | -10.2 |
| O=C1[C@H]2CN(Cc3ccccn3)C[C@H]2CN1c1ccsc1 | -6.18 |
| O=C1[C@H]2CN(Cc3ccncc3)C[C@H]2CN1c1ccsc1 | -10.1 |
| COCCNC(=O)[C@@]12CCO[C@@H]1CCN(Cc1ccncc1)C2 | -10.2 |
| O=C1CC2(CCN(Cc3ccncc3)C2)CN1c1ccc2c(c1)OCO2 (configuration not stated) | 30 |
| COCCN(C)C1COC2(CCN(Cc3ccccn3)CC2)C1 (configuration not stated) | 11.6 |
| Cc1ccc(N2CCO[C@H]3CN(Cc4cccnc4)C[C@H]32)nn1 | 12.6 |
| CN1CCN(CC2CN(CC3CC3)Cc3nccn3C2)CC1 (configuration not stated) | -6.02 |
